Read-outs that look alike come from different tables or passages of the source. Some results are limits rather than exact numbers.

This assay addresses human LPAR1 (Homo sapiens, UniProt Q92633). Put plainly: In vitro functional assay of lysophosphatidic acid receptor 1 activity (calcium flux). In kind it is cell-based.
Where [1] appears, read: B103 cells stably expressing human LPAR1, calcium flux (Fluo-4 NW) after lysophosphatidic acid (18:1) at EC80, 100 pM to 10 μM, read-out: LPAR1 IC50.

Chain of human LPAR1 (Q92633 whole entry): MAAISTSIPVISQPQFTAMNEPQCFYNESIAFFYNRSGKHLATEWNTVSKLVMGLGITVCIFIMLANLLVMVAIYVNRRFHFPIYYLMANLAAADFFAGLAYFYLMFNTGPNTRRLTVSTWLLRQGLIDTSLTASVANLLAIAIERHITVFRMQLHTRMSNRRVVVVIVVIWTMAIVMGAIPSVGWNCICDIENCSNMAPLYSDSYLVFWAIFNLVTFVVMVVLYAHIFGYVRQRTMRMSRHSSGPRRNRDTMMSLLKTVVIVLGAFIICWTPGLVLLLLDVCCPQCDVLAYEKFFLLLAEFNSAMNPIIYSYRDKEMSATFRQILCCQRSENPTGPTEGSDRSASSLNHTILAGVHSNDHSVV

Turning to `COc1ccc(NC(=O)N(c2ccccc2C(C)C)[C@@H]2CCN(C(C)=O)C[C@@H]2F)c(OC(F)F)n1` [Example 49, 1-((3S,4R)-1-acetyl-3-fluoropiperidin-4-yl)-3-(2-(difluoromethoxy)-6-methoxypyridin-3-yl)-1-(2-isopropylphenyl)urea], the IC50 (in general, the point on the concentration scale where inhibition reaches its midpoint) (LPAR1 IC50) lay within 0.01 to 0.1 µM.

On to `Cc1ccc(NC(=O)N(c2ccccc2C(C)C)C2CCN(C(=O)Cn3nccn3)CC2)c(OC(F)F)n1` [Example 79, 1-(1-(2-(2H-1,2,3-triazol-2-yl)acetyl)piperidin-4-yl)-3-(2-(difluoromethoxy)-6-methylpyridin-3-yl)-1-(2-isopropylphenyl)urea], for which the IC50 (LPAR1 IC50) was less than 0.01 µM. The same measure, in the same setting: the result for `COc1ccc(NC(=O)N(c2ccccc2C(C)C)[C@@H]2C[C@H]3CC[C@@H](C2)N3C(C)=O)c(OC(F)F)n1` [Example 55, 1-((1R,3r,5S)-8-acetyl-8-azabicyclo[3.2.1]octan-3-yl)-3-(2-(difluoromethoxy)-6-methoxypyridin-3-yl)-1-(2-isopropylphenyl)urea] reads 0.1 to 1 µM. For the compound `Cc1ccc(NC(=O)N(c2ccccc2C(C)C)[C@H]2C[C@H](CC(N)=O)C2)c(OC(F)F)n1` [Example 188], the half-inhibitory concentration (IC50) under setting [1] was in the range of 0.1 to 1 µM. `Cc1ccc(NC(=O)N(c2ccccc2C(C)C)[C@H]2CC[C@@H](c3cccnc3)CC2)c(OC(F)F)n1` [Example 260, 3-(2-(difluoromethoxy)-6-methylpyridin-3-yl)-1-(2-isopropylphenyl)-1-((1s,4s)-4-(pyridin-3-yl)cyclohexyl)urea]: the 50% inhibitory concentration (IC50) under setting [1] is more than 1 µM.

As to `Cc1ccc(NC(=O)N(CC23CCC(C(=O)O)(CC2)CC3)c2ccccc2C(C)C)c(OC(F)F)n1` [Example 167], the IC50 under setting [1] was 0.01 to 0.1 µM.

`COC(C)c1ccccc1N(C(=O)Nc1ccc(C)nc1OC(F)F)C1CCN(C(C)=O)CC1` (centres unmarked) [Example 35, 1-(1-acetylpiperidin-4-yl)-3-(2-(difluoromethoxy)-6-methylpyridin-3-yl)-1-(2-(1-methoxyethyl)phenyl)urea]: the 50% inhibitory concentration (IC50) (LPAR1 IC50) is 0.1 to 1 µM. Take `COc1ccc(NC(=O)N(c2ccccc2C(C)C)[C@@H]2CCN(C(C)=O)C[C@H]2F)c(OC(F)F)n1` (racemic) [Example 46, rac-1-((3R,4R)-1-acetyl-3-fluoropiperidin-4-yl)-3-(2-(difluoromethoxy)-6-methoxypyridin-3-yl)-1-(2-isopropylphenyl)urea]: under “LPAR1 IC50”, the 50% inhibitory concentration (IC50) fell in the range of 0.01 to 0.1 µM. As to `COc1ccc(NC(=O)N(c2ccccc2C(C)C)[C@H]2CCC[C@@H](C(=O)O)C2)c(OC(F)F)n1` [Example 147], the IC50 under setting [1] was less than 0.01 µM. The same measure, in the same setting: the result for `Cc1ccc(NC(=O)N(c2ccccc2C(C)C)[C@H]2C[C@H](O)C2)c(OC(F)F)n1` [Example 181] reads 0.01 to 0.1 µM. In the case of `CC(=O)N1CCC(N(C(=O)Nc2ccc(C(F)F)nc2OC(F)F)c2ccccc2C(C)C)CC1` [Example 115], the concentration for half-maximal inhibition (IC50) (LPAR1 IC50) is 0.01 to 0.1 µM. `CC(C)c1ccccc1N(C(=O)Nc1cc(F)c(Cl)cc1OCC(F)F)[C@H]1C[C@@H](CC(=O)O)C1` [Example 331]: the half-inhibitory concentration (IC50) under setting [1] was less than 0.01 µM. As for `COc1ccc(NC(=O)N(c2ccccc2C(C)C)[C@H]2C[C@]3(C[C@H]3C(=O)O)C2)c(OC(F)F)n1` [Example 150], the IC50 under setting [1] was less than 0.01 µM. Take `Cc1ccc(NC(=O)N(c2ccccc2C(C)C)C2CC(=O)C2)c(OC(F)F)n1` [Example 195]: the IC50 under setting [1] fell in the range of 0.01 to 0.1 µM. For the compound `CC(=O)N1CCC(N(C(=O)Nc2ncc(Br)cc2OC(F)F)c2ccccc2C(C)C)CC1` [Example 129, 1-(1-acetylpiperidin-4-yl)-3-(5-bromo-3-(difluoromethoxy)pyridin-2-yl)-1-(2-isopropylphenyl)urea], the IC50 (LPAR1 IC50) lay within 0.01 to 0.1 µM. For `CC(=O)N1CCC(N(C(=O)Nc2ccc(C)nc2OC(F)F)c2cccc(C)c2)CC1` [Example 33, 1-(1-acetylpiperidin-4-yl)-3-(2-(difluoromethoxy)-6-methylpyridin-3-yl)-1-(m-tolyl)urea], the half-inhibitory concentration (IC50) (LPAR1 IC50) is more than 1 µM. For the compound `CC(=O)N1CCC(N(C(=O)Nc2cnc(C)cn2)c2ccccc2C(C)C)CC1` [Example 131], where the note is “LPAR1 IC50”, the half-maximal inhibitory concentration (IC50) lay within 0.1 to 1 µM.

The values are drawn from US20250034110A1, “LPAR1 ANTAGONISTS AND USES THEREOF” (Pipeline Therapeutics, Inc., priority 2021, published 2025).
